Source: patent US8221992B2, “Assays for determining compounds which modulate TRAM phosphorylation” (Opsona Therapeutics Limited, priority 2005, dated 2012)
“Also recorded” adds a separate entry of the source.

Experiments:
TRAM = assay: Immunoblot of PKCε expressing MEF lysates with phospho-specific (Serine 16) TRAM antibody; type: cell-based; conditions: stimulation for 30 minutes (LPS 15 and 30 minutes)
Text: Fabgennix (Texas, USA), using a synthetic peptide corresponding to amino acids 7 to 21 of TRAM (KIN SCP LSL SWG KRH) with a phosphoserine incorporated instead of the serine at amino acid 16, generated and purified a phospho-specific antibody towards TRAM phosphorylated on Serine 16. The validity of the antibody was confirmed when the band predicted to the phosphorylated TRAM was not present in samples taken from TRAM-deficient MEFs (data not shown).
The phosphorylation occurred earlier in this cell type than the THP1 cells as the effect was waning by 45 minutes (lane 11) and was not evident at 60 minutes (lane 12). Levels of total TRAM were not altered in the lysates over the time course (FIG. 4c, second panel). Importantly no band was detected in lysates generated from PKCε^−/− MEFs (FIG. 4c, top panel, lane 1-6) and no bands were detected in TRAM-deficient cells attesting to the specificity of the antibody (data not shown). Finally treatment of PKCε expressing MEFs with the TLR2 ligand MALP2 or the TLR3 ligand polyI:C for 30 minutes had no effect (FIG. 4d).

GST-TRAM = assay: Kinase assay: GST-TRAM pulldown with THP1 lysates, [γ32P] ATP; type: biochemical; conditions: THP1 cells treated with the stimulus before lysis
Method: Kinase assay: THP1 cells were seeded at 2×10^5 cells/ml in a T175 flask (Sarstedt) and incubated overnight at 37° C. The following day 30 ml of cells were treated with and without LPS in 50 ml falcon tubes (Sarstedt) for 1 hour. The cells were collected by centrifugation, washed once in PBS and lysed in 1 ml buffer (10% glycerol (v/v), 50 mM NaF, 20 mM Tris-Cl pH 8.0, 2 mM EDTA, 137 mM NaCl, 1% NP-40, 1 mM PMSF, 10 μg/ml leupeptin, 1 mM Na3VO4) for 10 minutes. The cell debris was centrifuged for 10 min at 13,000 rpm and the supernatant was removed to a fresh tube for use in the kinase assay. 50 μl of the purified GST-TRAM on the Glutathione beads was placed in an eppendorf tube and the appropriate lysate was added to the tube and incubated for 2 hours at 4° C. The beads were spun down at 2,000 rpm for 5 min and then washed three times in kinase buffer (20 mM HEPES, pH 7.5, 10 mM MgAc, 0.03% Trition, 100 μg/ml phosphotidylserine, 20 mM β-glycerol phosphate, 0.01% (w/v) leupeptin and 100 μM Na3VO4). These beads were then resuspended in 30 μl kinase buffer containing 20 μM cold ATP and 5 μCi [γ^32P] […]
TRAM is phosphorylated upon LPS stimulation: TRAM is myristoylated, and in resting cells is located in the membrane (unpublished data). […] The samples were then run on a 10% SDS-PAGE gel, transferred onto nitrocellulose and the incorporated radioactivity was measured using X-ray film. […]

For MALP2, the “TRAM phosphorylation on serine 16 in PKCε expressing MEFs” value (TRAM) was “had no effect”.
With PolyI:C the “phosphorylation of GST-TRAM by lysates of stimulated THP1 cells” value (GST-TRAM) was “phosphorylation of TRAM does not occur; also recorded: This phosphorylation did not occur” and the “TRAM phosphorylation on serine 16 in PKCε expressing MEFs” value (TRAM) was “had no effect”.
